Usually EC50 stands for the concentration at which the effect is half-maximal. Broadly, the EC99 is the point of the concentration-response curve where the effect stands at 99%. The CC50 is the concentration that lowers cell viability or growth by half. For orientation: inhibition means the percentage by which the read-out fell short of the control. A higher inhibition goes with strong suppression.

We go through 14 molecules from ChEMBL document CHEMBL4049445.

Series [1] in a line: Antiviral activity against Influenza A virus A//HK/7/87 (H3N2) expressing wild-type M2 proton channel infected in MDCK cells assessed as reduction in plaque formation preincubated with virus for 1 hr followed by addition to cells measured after 72 hrs by crystal violet staining based assay. The series is classed as functional, cell-based, Influenza A virus (A/Hong Kong/7/1987(H3N2)).

The nature of series [2]: Antiviral activity against Influenza A virus A//HK/7/87 (H3N2) expressing wild-type M2 proton channel infected in MDCK cells assessed as reduction in viral yield after 24 hrs by RT-qPCR method. The series is classed as functional, Influenza A virus (A/Hong Kong/7/1987(H3N2)).
Series [3] deals with MDCK. The series is described as follows: (§1) Cytotoxicity against MDCK cells assessed as reduction in cell viability after 72 hrs by MTS assay. Particulars: dog, mdck, 72 h. The series is classed as cell-based, Canis lupus familiaris. (Tetrazolium dyes change colour on reduction, which living cells bring about.)
The nature of series [4]: as §1. The series is classed as cell-based, Canis lupus familiaris. Particulars: dog, MDCK cells.
The target in series [5] is Matrix protein 2 (Influenza A virus (A/Udorn/307/1972(H3N2))) (UniProt P0DOF8). The series is classed as cell-based. Particulars: Influenza A virus (A/udorn/1972(H3N2)); 100 uM.
The target is the same in series [6]. The series is classed as cell-based. Particulars: Influenza A virus (A/udorn/1972(H3N2)); 100 uM. This is another data set of the same source.
Series [7] in a line: Antiviral activity against Influenza A virus (A2 Japan/305/57) H2N2 infected in MDCK cells assessed as reduction of virus-induced cytopathic effect after 4 to 5 days by MTS assay. The series is classed as functional, cell-based, Influenza A virus (A/Japan/305/1957(H2N2)).

Where only a bound is given, the exact number is not on record here.

Matrix protein 2 (Influenza A virus (A/Udorn/307/1972(H3N2))), sequence (P0DOF8 whole entry): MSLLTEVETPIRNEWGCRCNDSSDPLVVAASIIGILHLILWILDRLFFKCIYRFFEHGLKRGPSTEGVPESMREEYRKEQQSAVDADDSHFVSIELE

With `CN1CCC(CC2C3CC4CC(C3)CC2C4)CC1` (stereo not drawn), the EC50 in series [1] is above 10 µM. Moreover, in series [2], the EC99 was above 2 µM. Moreover, the CC50 in series [3] amounted to 6.2 µM.
Take `C(=C1C2CC3CC(C2)CC1C3)C1CCNCC1`: the EC50 in series [1] was above 5 µM. The EC99 in series [2] is above 10 µM. Further, the CC50 at 72 h in series [4] was 25 µM.
As for `C1CC(C2C3CC4CC(C3)CC2C4)CCN1` (stereo not drawn), the EC99 in series [2] was at least 50 µM. Further, the CC50 in series [3] was above 100 µM.
As for `C1CC(C23CC4CC(CC(C4)C2)C3)CCN1`, the EC50 in series [1] was determined as 0.14 µM. For the same molecule, in series [2], the EC99 is at least 1.7 µM. Also, in series [3], the cytotoxic concentration (CC50) came to 18 µM.
The corresponding values for `CC(N)C12CC3CC(CC(C3)C1)C2` (stereo not drawn) [RIMANTADINE] are 0.016 µM, 1.1 µM and above 500 µM.
`OC1(CC2CCNCC2)C2CC3CC(C2)CC1C3` (stereo not drawn): in series [1], the EC50 amounted to 10 µM. Moreover, the EC99 in series [2] is above 50 µM. Further, the CC50 in series [3] is above 50 µM.
Consider `NC12CC3CC(CC(C3)C1)C2` [AMANTADINE], for which the EC50 in series [1] was 0.14 µM. Moreover, the 99% effect concentration (EC99) in series [2] came out at 0.51 µM.
As for `N=C(N)N1CCC(C=C2C3CC4CC(C3)CC2C4)CC1`, the EC50 in series [1] was above 5 µM. Also, the concentration for an effect of 99% (EC99) in series [2] is above 2 µM. In addition, in series [4], the 50% cytotoxic concentration (CC50) at 72 h turned out to be 19 µM.
In the case of `C1CC(CC2C3CC4CC(C3)CC2C4)CCN1` (stereo not drawn), in series [1], the EC50 is above 10 µM. In addition, the EC99 in series [2] was above 2 µM. The CC50 in series [3] was determined as 15 µM.
For the molecule `CCN1CCC(C2C3CC4CC(C3)CC2C4)CC1` (stereo not drawn), in series [1], the concentration for a half-maximal effect (EC50) is above 10 µM. In addition, the EC99 in series [2] was above 10 µM. Further, the CC50 in series [3] came to 25 µM.
Turning to `OC1(C2CCNCC2)C2CC3CC(C2)CC1C3` (stereo not drawn), in series [1], the EC50 was above 100 µM. For the same molecule, the results for the inhibition in series [5] and in series [6] were 25% and 30%, respectively. Moreover, the EC99 in series [2] worked out at 76 µM. In series [3], the cytotoxic concentration (CC50) was above 100 µM.
In the case of `C1CCC(C23CC4CC(CC(C4)C2)C3)NC1` (stereo not drawn), the EC50 in series [1] came out at 1 µM; in series [7], 3.3 µM. For the same molecule, the concentration for an effect of 99% (EC99) in series [2] came to 3.5 µM. Further, the CC50 in series [3] was above 100 µM.
For the molecule `N=C(N)N1CCC(C23CC4CC(CC(C4)C2)C3)CC1`, the EC50 in series [1] is above 50 µM. The EC99 in series [2] is above 2 µM. Further, in series [3], the CC50 was 10 µM.
For the molecule `N=C(N)N1CCC(CC2C3CC4CC(C3)CC2C4)CC1` (stereo not drawn), the EC50 in series [1] was above 10 µM. Further, the EC99 in series [2] was above 2 µM. Moreover, in series [3], the CC50 is 3.8 µM.
